This note sets out measurements from patent publication US20260109721A1, “IONIZABLE CATIONIC LIPIDS INCORPORATING SILICON: SYNTHESIS AND LNP FORMULATION” (priority 2023, published 2026).

In data set [1] the test system is HeLa cells. The data set can be described thus: Cell viability assessment with resazurin assay (Method A). Format: cell-based. As to conditions: human. Put shortly:
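HeLa cells after Luc mRNA LNP transfection were incubated 50 min at 37 °C with 0.025 mg/ml resazurin in DMEM/F12 with 10% FCS. Resorufin fluorescence was read at ex 540/em 610 nm, background-subtracted, and expressed as percent of OptiMEM-only controls.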
In general terms: Alamar Blue is a resazurin reagent that responds to reducing activity.

Data set [2] relates to HeLa cells. The data set is described as follows: Transfection efficiency with Luciferase (SecNLuc) mRNA, Nano-Glo assay (Method A). Format: cell-based. As to conditions: Luc mRNA, 24 h, luminescence; for Transfection 10 ng mRNA: 10 ng mRNA/well; for Transfection 50 ng mRNA: 50 ng mRNA/well; for Transfection 100 ng mRNA: 100 ng mRNA/well. Put shortly:
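LNPs formulated by Method A carried SecNLuc mRNA at 100, 50 or 10 ng/well onto HeLa cells at 80% confluence, in triplicate. After 24 h, secreted NanoLuc in the medium was measured by Nano-Glo luminescence about 3 min after reagent addition.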

`CCCCC/C=C\C/C=C\CCCCCCCCOC(CCCCCCC/C=C\C/C=C\CCCCC)O[Si](C)(C)OCCCCCCN(C)C` (stereo not shown) [Example 79, (20Z,23Z)-10-((8Z,11Z)-heptadeca-8,11-dien-1-yl)-N,N,8,8-tetramethyl-7,9,11-trioxa-8-silanonacosa-20,23-dien-1-amine]: the “Cell Viability % (Average metabolic rate over all doses, Resazurin)” value (shortened to “Cell Viability %”) in data set [1] stood at 91%. Further, in data set [2], the “Transfection 10 ng mRNA” value is 2.45E+03, the “Transfection 50 ng mRNA” value was 8.30E+04 and the “Transfection 100 ng mRNA” value is recorded as 2.01E+05.
On to `CCCCC/C=C\C/C=C\CCCCCCCCO[Si](C)(C)OC(CCCCCCC/C=C\C/C=C\CCCCC)OCCCN(C)C` (stereo not shown) [Example 80, (17Z,20Z)-5-((8Z,11Z)-heptadeca-8,11-dien-1-yl)-N,N,7,7-tetramethyl-4,6,8-trioxa-7-silahexacosa-17,20-dien-1-amine], for which the “Cell Viability %” value in data set [1] came out at 99%. Also, in data set [2], the “Transfection 10 ng mRNA” value came to 1.90E+01, the “Transfection 50 ng mRNA” value turned out to be 1.25E+02 and the “Transfection 100 ng mRNA” value was determined as 5.41E+02.
For `CCCCC/C=C\C/C=C\CCCCCCCCO[Si](C)(C)OC(CCCCCCC/C=C\CCCCCCCC)OCCCN(C)C` (stereo not shown) [Example 81, (17Z,20Z)-5-((Z)-heptadec-8-en-1-yl)-N,N,7,7-tetramethyl-4,6,8-trioxa-7-silahexacosa-17,20-dien-1-amine], in that order: 100%, 1.57E+02, 5.31E+02 and 5.71E+02.
In the case of `CCCCC/C=C\C/C=C\CCCCCCCCOC(CCCCCCC/C=C\C/C=C\CCCCC)O[Si](C)(C)O[Si](C)(C)CCCCCCN(CCO)CCO` (stereo not shown) [Example 82, (24Z,27Z)-14-((8Z,11Z)-heptadeca-8,11-dien-1-yl)-3-(2-hydroxyethyl)-10,10,12,12-tetramethyl-11,13,15-trioxa-3-aza-10,12-disilatritriaconta-24,27-dien-1-ol], in data set [1], the “Cell Viability %” value worked out at 97%. In addition, in data set [2], the “Transfection 10 ng mRNA” value is 1.16E+03, the “Transfection 50 ng mRNA” value worked out at 7.26E+03 and the “Transfection 100 ng mRNA” value amounted to 3.59E+04.
Taken in the same sequence, the figures for `CCCCCCCC/C=C\CCCCCCCCOC(=O)C(C)(C)CC(OCCCCCCCC/C=C\CCCCCCCC)O[Si](C)(C)OCCCCCCN(CCO)CCO` (stereo not shown) [Example 84, (Z)-octadec-9-en-1-yl 1-hydroxy-3-(2-hydroxyethyl)-11,11,15,15-tetramethyl-13-(((Z)-octadec-9-en-1-yl)oxy)-10,12-dioxa-3-aza-11-silahexadecan-16-oate] were 114%, 3.08E+03, 5.69E+04 and 2.00E+05.
For `CCCCCCCC/C=C\CCCCCCCCOC(=O)C(C)(C)CC(OCCCCCCCC/C=C\CCCCCCCC)O[Si](C)(C)OCCCCCCN1CCOCC1` (stereo not shown) [Example 85, (Z)-octadec-9-en-1-yl 4-((dimethyl((6-morpholinohexyl)oxy)silyl)oxy)-2,2-dimethyl-4-(((Z)-octadec-9-en-1-yl)oxy)butanoate], in that order: 110%, 4.67E+00, 3.23E+01 and 8.37E+01.
For `CCCCCCCC/C=C\CCCCCCCCOC(=O)C(C)(C)CC(OCCCCCCCC/C=C\CCCCCCCC)O[Si](C)(C)OCCCCCCN(CCCCO)CCCCO` (stereo not shown) [Example 86, (Z)-octadec-9-en-1-yl 18-hydroxy-14-(4-hydroxybutyl)-2,2,6,6-tetramethyl-4-(((Z)-octadec-9-en-1-yl)oxy)-5,7-dioxa-14-aza-6-silaoctadecanoate], in that order: 96%, 3.47E+04, 4.82E+05 and 1.37E+06.
Consider `CCCCCCCC/C=C\CCCCCCCCOC(=O)C(C)(C)CC(OCCCCCCCC/C=C\CCCCCCCC)O[Si](C)(C)OCCCCCCN1CCCCC1` (stereo not shown) [Example 87, (Z)-octadec-9-en-1-yl 4-((dimethyl((6-(piperidin-1-yl)hexyl)oxy)silyl)oxy)-2,2-dimethyl-4-(((Z)-octadec-9-en-1-yl)oxy)butanoate], for which the “Cell Viability %” value in data set [1] came to 84%. In addition, in data set [2], the “Transfection 10 ng mRNA” value turned out to be 5.68E+03, the “Transfection 50 ng mRNA” value was 5.01E+04 and the “Transfection 100 ng mRNA” value was 9.96E+04.
For `CCCCCCCC/C=C\CCCCCCCCOC(=O)C(C)(C)CC(OCCCCCCCC/C=C\CCCCCCCC)O[Si](C)(C)OCCCCCCN(CCCO)CCCO` (stereo not shown) [Example 88, (Z)-octadec-9-en-1-yl 1-hydroxy-4-(3-hydroxypropyl)-12,12,16,16-tetramethyl-14-(((Z)-octadec-9-en-1-yl)oxy)-11,13-dioxa-4-aza-12-silaheptadecan-17-oate], in that order: 91%, 6.30E+03, 9.95E+04 and 5.10E+05.
For `CCCCCCCC/C=C\CCCCCCCCOC(=O)C(C)(C)CC(OCCCCCCCC/C=C\CCCCCCCC)O[Si](C)(C)OCCCCCCN1CCCCC1CO` (stereo not shown) [Example 89, (Z)-octadec-9-en-1-yl 4-((((6-(2-(hydroxymethyl)piperidin-1-yl)hexyl)oxy)dimethylsilyl)oxy)-2,2-dimethyl-4-(((Z)-octadec-9-en-1-yl)oxy)butanoate], in that order: 96%, 1.10E+06, 7.47E+06 and 1.54E+07.
For `CCCCCCCC/C=C\CCCCCCCCOC(=O)C(C)(C)CC(OCCCCCCCC/C=C\CCCCCCCC)O[Si](C)(C)OCCCCCCN1CCCC1CO` (stereo not shown) [Example 90, (Z)-octadec-9-en-1-yl 4-((((6-(2-(hydroxymethyl)pyrrolidin-1-yl)hexyl)oxy)dimethylsilyl)oxy)-2,2-dimethyl-4-(((Z)-octadec-9-en-1-yl)oxy)butanoate], in that order: 106%, 2.84E+04, 1.06E+06 and 4.86E+06.
Regarding `CCCCCCCC/C=C\CCCCCCCCOC(=O)C(C)(C)CC(OCCCCCCCC/C=C\CCCCCCCC)O[Si](C)(C)OCCCCCCN(C)CCCCO` (stereo not shown) [Example 91, (Z)-octadec-9-en-1-yl 18-hydroxy-2,2,6,6,14-pentamethyl-4-(((Z)-octadec-9-en-1-yl)oxy)-5,7-dioxa-14-aza-6-silaoctadecanoate], the “Cell Viability %” value in data set [1] is listed as 105%. Moreover, in data set [2], the “Transfection 10 ng mRNA” value is on record as 7.02E+03, the “Transfection 50 ng mRNA” value was 1.13E+05 and the “Transfection 100 ng mRNA” value came out at 7.45E+05.
Taken in the same sequence, the figures for `CCCCCCCC/C=C\CCCCCCCCOC(=O)C(C)(C)CC(OCCCCCCCC/C=C\CCCCCCCC)O[Si](C)(C)OCCCCCCN(C)CC(O)CO` (stereo not shown) [Example 92, (Z)-octadec-9-en-1-yl 1,2-dihydroxy-4,12,12,16,16-pentamethyl-14-(((Z)-octadec-9-en-1-yl)oxy)-11,13-dioxa-4-aza-12-silaheptadecan-17-oate] were 111%, 3.35E+03, 3.94E+04 and 1.65E+05.
For `CCCCCCCC/C=C\CCCCCCCCOC(=O)C(C)(C)CC(OCCCCCCCC/C=C\CCCCCCCC)O[Si](C)(C)OCCCCCCN(C)CCO` (stereo not shown) [Example 93, (Z)-octadec-9-en-1-yl 1-hydroxy-3,11,11,15,15-pentamethyl-13-(((Z)-octadec-9-en-1-yl)oxy)-10,12-dioxa-3-aza-11-silahexadecan-16-oate], in that order: 106%, 2.73E+03, 2.75E+04 and 1.19E+05.
For `CCCCCCCC/C=C\CCCCCCCCOC(=O)C(C)(C)CCC(OCCCCCCCC/C=C\CCCCCCCC)O[Si](C)(C)OCCCCCCN(CCO)CCO` (stereo not shown) [Example 94, (Z)-octadec-9-en-1-yl 1-hydroxy-3-(2-hydroxyethyl)-11,11,16,16-tetramethyl-13-(((Z)-octadec-9-en-1-yl)oxy)-10,12-dioxa-3-aza-11-silaheptadecan-17-oate], in that order: 101%, 7.50E+02, 8.22E+03 and 3.14E+04.
In the case of `CCCCCCCC/C=C\CCCCCCCCOC(=O)C(C)(C)CCC(OCCCCCCCC/C=C\CCCCCCCC)O[Si](C)(C)OCCCCCCN1CCOCC1` (stereo not shown) [Example 95, (Z)-octadec-9-en-1-yl 5-((dimethyl((6-morpholinohexyl)oxy)silyl)oxy)-2,2-dimethyl-5-(((Z)-octadec-9-en-1-yl)oxy)pentanoate], in data set [1], the “Cell Viability %” value was 106%. Further, in data set [2], the “Transfection 10 ng mRNA” value was found to be 1.22E+02, the “Transfection 50 ng mRNA” value is 5.37E+02 and the “Transfection 100 ng mRNA” value amounted to 9.82E+02.
